Like-named read-outs stand apart in the source and are kept apart here.
Legend:
[1] = system: Osteoblastic MC3T3 E1 cells; assay: Stimulation of MC3T3 E1 osteoblastic cell number; assay type: cell-based; conditions: for ligand concentration that doubled cell number: MC3T3 E1 cells, last 46 hours in culture, DMSO solution
Procedure: Osteoblastic MC3T3 E1 cells were cultured as reported in Miguel et al, 2005. […] Control cultures were treated only with the DMSO solvent (Ofek et al, 2006).

[2] = system: OVX mouse model; assay: Rescue of ovariectomy (OVX)-induced trabecular bone loss, μCT of L3 vertebrae; assay type: in vivo
Description: Data are mean±S.E. obtained in 6 mice per condition. (*) p<0.05.
Using this experimental system for testing bone anabolic activity, OVXed mice are left untreated to allow for bone loss to occur, followed by a treatment period intended for reversal of the bone loss (Alexander et al, 2001).

[3] = biological target: T1, CB1 receptor (Rattus norvegicus, UniProt P20272); assay: CB1 receptor binding, [3H]HU-243 displacement, synaptosomal membranes; parameters: species or system Sabra rats
T1 construct: synaptosomal membranes were prepared from the brains of Sabra rats by homogenization and gradient centrifugation; from tissue; host or cells: brain of Sabra rats, synaptosomal membranes
Procedure: For CB1 receptor binding, synaptosomal membranes were prepared from the brains of Sabra rats by homogenization and gradient centrifugation (Devane et al, 1992). For CB2 receptor binding assay, COS-7 cells were transfected with plasmids containing CB2 cDNA, and crude membranes were prepared (Munro et al, 1993).
Bound and free radioligands were separated by centrifugation. The data were normalized to 100% of specific binding, which was determined with 50 nM unlabeled HU-243.

[4] = system: mice; conditions: cited from earlier work
[5] = biological target: T1, CB1 receptor; conditions: cited from earlier work
[6] = system: osteoblastogenesis / osteoclastogenesis; conditions: cited from earlier work
[7] = biological target: T2, CB2 receptor (Homo sapiens, UniProt P34972); conditions: Hanus et al.; cited from earlier work
T2 construct: expressed in transfected cells; host or cells: COS-7 cells
T2 sequence (P34972 whole entry): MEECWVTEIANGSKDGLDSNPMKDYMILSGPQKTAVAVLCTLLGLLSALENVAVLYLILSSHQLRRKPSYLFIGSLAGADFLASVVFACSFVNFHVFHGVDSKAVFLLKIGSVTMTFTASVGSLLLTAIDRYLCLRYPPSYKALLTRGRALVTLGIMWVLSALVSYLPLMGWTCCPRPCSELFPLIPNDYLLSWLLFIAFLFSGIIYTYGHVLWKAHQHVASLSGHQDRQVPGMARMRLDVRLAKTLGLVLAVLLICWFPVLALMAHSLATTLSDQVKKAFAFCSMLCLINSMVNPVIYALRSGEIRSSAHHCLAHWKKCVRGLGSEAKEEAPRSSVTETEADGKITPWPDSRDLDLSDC

T1 sequence (P20272 whole entry): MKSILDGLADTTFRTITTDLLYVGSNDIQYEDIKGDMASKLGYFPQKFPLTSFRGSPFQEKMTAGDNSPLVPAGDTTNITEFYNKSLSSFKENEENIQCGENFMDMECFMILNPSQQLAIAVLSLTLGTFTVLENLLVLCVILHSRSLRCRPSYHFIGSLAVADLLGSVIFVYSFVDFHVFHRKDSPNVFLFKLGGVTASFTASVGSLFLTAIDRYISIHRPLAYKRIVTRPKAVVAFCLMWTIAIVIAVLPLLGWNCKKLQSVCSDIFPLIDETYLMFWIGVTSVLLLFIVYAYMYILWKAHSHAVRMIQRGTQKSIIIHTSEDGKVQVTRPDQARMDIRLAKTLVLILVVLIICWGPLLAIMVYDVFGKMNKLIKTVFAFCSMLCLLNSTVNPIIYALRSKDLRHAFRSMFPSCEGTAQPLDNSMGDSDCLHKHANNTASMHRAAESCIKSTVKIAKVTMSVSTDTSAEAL

Compound | in vitro skeletal activity compared to HU-308 ([1]; MC3T3 E1 cell number assay) [fold] | ligand concentration that doubled cell number [1] | rescue of OVX-induced trabecular bone loss ([2]; 0.2 mg/Kg/day intraperitoneal for 6 weeks, starting 6 weeks after OVX, L3 vertebrae μCT) | effect compared with reversal of bone volumetric density by parathyroid hormone (1-34) ([2]; comparison with Alexander et al, 2001) | Ki [3] [µM] | binding to CB1 receptor ([3]; present example) | reversal of OVX-induced trabecular bone loss ([2]; 20 mg/Kg/day intraperitoneal for 6 weeks, starting 6 weeks after OVX, L3 vertebrae μCT) [%] | OVX-induced bone loss ([4]; another mouse model, Bab et al, 2008) | bone formation ([4]; mice, Ofek et al, 2006) | bone resorption ([4]; mice, Ofek et al, 2006) | ovariectomy (OVX)-induced bone loss ([4]; mice, Ofek et al, 2006) | binding to CB1 receptor ([5]; Hanus et al.) | Ki ([5]; read-out: Ki CB1, HU-308, from Hanus et al, 1999) [µM] | in vitro osteoblastogenesis [6] | in vitro osteoclastogenesis [6] | binding to CB2 receptor [7] | Kd ([5]; radioligand probe, read-out: dissociation constant for the CB1 receptor) [nM]
CCCCCCC(C)(C)c1cc(OC)c([C@@H]2C=C(CO)C3CC2C3(C)C)c(OC)c1 (single isomer, unassigned; (-)) [HU-433, (−)-2-(3-myrtenyl)-5-dimethylheptyl resorcinol] | 1000 | 10^−11 M | significantly rescued almost the entire OVX-induced trabecular bone loss | substantially greater | > 20 | did not bind to CB1 receptor | – | – | – | – | – | – | – | – | – | – | –
CCCCCCC(C)(C)c1cc(OC)c([C@@H]2C=C(CO)[C@@H]3C[C@H]2C3(C)C)c(OC)c1 [HU-308] | – | 10^−8 M | – | – | – | – | 50 | rescues | stimulates bone formation | inhibits bone resorption | attenuating | did not bind to CB1 receptor | > 10 | stimulates | inhibits | potent binding to CB2 receptor | –
CCCCCCC(C)(C)c1cc(O)c2c(c1)OC(C)(C)[C@@H]1CC[C@@H](CO)C[C@@H]21 [[^3H]HU-243] | – | – | – | – | – | – | – | – | – | – | – | – | – | – | – | – | 0.045 ± 0.007

Source: patent publication US9428431B2, “Compositions comprising CB receptor agonists, uses thereof and methods for their preparation” (Yissum Research Development Company of the Hebrew …, priority 2008, dated 2016)
